Source: article PMC12119673, “Apoptotic cell death induced by copper (II), manganese (II) and silver (I) complexes containing bridging dicarboxylate and 1,10-phenanthroline ligands: one of the multi-modes of anticancer activity?” (Biometals, 2025)
Where two headings read alike, the source gives them in different places.

Key:
Assay type in all cases: cell-based, human
[1] = test system: MCF-12A cells; experiment: In vitro cytotoxicity assessment, alamar blue assay, 24-h exposure; details: for Decrease in activity towards MCF-12A cells relative to MCF-7 cells (selectivity): IC50 MCF-12A vs IC50 MCF-7, 24 h
Procedure: The MCF-7 (human breast cancer) and MCF-12A (non-tumourigenic human breast) cell lines were obtained from the Technological University Dublin (TUDublin, City Campus) internal cell bank and commercially from the American Type Culture Collection (ATCC), respectively. Both cell lines were cultured using Dulbecco’s Modified Eagle Medium/Nutrient Mixture F-12 Ham (DMEM-F12) (Sigma, Ireland) (Cat# D6421) media. The MCF-7 media was supplemented with 10% Foetal Bovine Serum (Sigma, Ireland) (Cat# F7524) and 1% L-Glutamine (Sigma, Ireland) (Cat# 592020C). The MCF-12A media was supplemented with 5% Equine Serum (Sigma, Ireland) (Cat# H0146) 1.25% L-Glutamine (Sigma, Ireland) (Cat# 592020C), 20 ng/ml Human Epidermal Growth Factor (Thermo Fisher Scientific, Ireland) (Cat# PHG0313), 0.01 mg/ml insulin (Thermo Fisher Scientific, Ireland)(Cat# 12585014) and 500 ng/ml hydrocortisone (Sigma, Ireland) (Cat# H0888). The cells were grown in T75 culture flasks (Sarstedt, Germany) (Cat# 83.3911.002) and were incubated in a 5% CO2 atmosphere at 37 ℃. The cells were monitored daily, and once 80–90% confluence was reached, they were subcultured with an enzymatic dissociation method using trypsin. Both cell lines were routinely subcultured for 1 week prior to beginning experimental work, to ensure the cells had adapted to the environment.
The MCF-7 and MCF-12A cells were seeded at a density of 1 × 10^4 in 96-well flat bottom plates (Sarstedt, Germany) (Cat# 83.3924) and incubated in a 5% CO2 atmosphere at 37 ℃ for 24 h prior to exposure to the complexes. Following the incubation period, the media was removed, and cells were washed with sterile phosphate-buffered saline (PBS). […] All agents were diluted in supplemented cell culture media, and the cells were exposed to a concentration range of 0.5 μM–100 μM for 24 h in the conditions outlined previously. Following the exposure period, the drug-containing media was removed, and cells were washed three times with PBS, ensuring complete removal of the test agents. A 5% working solution of Alamar Blue (Thermo Fisher Scientific, Ireland) (Cat# DAL1100) was prepared in dark conditions using unsupplemented cell culture media. 100 μl of the solution was added to each well, and the cells were incubated for 3 h. Following incubation, absorbance values were obtained using a Varioskan Lux (Thermo Scientific, USA) at 570 nm and 600 nm wavelengths. Each exposure was carried out in triplicate plates and was repeated three independent times.
The software packages Microsoft^Ⓡ Excel (USA) and GraphPad Prism (Ver. 10.0.3) (GraphPad, USA) were used to analyse the alamar blue data. The treated sample values were first normalised to the negative control values. After normalisation, the mean and standard deviations (SD) were established using Microsoft^Ⓡ Excel. The statistical analysis package GraphPad was then used to determine the IC25 and IC50 concentrations. […] A p value of 0.05 or lower is considered to be statistically significant.

[2] = test system: apoptotic genes in MCF-12A cells; experiment: Apoptosis-related gene expression, qRT-PCR; details: IC25 concentration, 24 h, relative to negative control
Procedure: (§1) A broad scope of molecular targets involved in the apoptotic pathway were selected for analysis using qRT-PCR including initiators, mediators and inhibitors. These gene targets along with their cellular location and associated primer set are outlined in Table 2. Primer sets for each gene were designed using NCBI nucleotide sequences and the Primer3 application (Table 3). Once designed, the primers were synthesised by Sigma Aldrich, Ireland.
(§2) MCF-7 and MCF-12A cells were seeded at a density of 1 × 10^5 in T25 flasks and incubated for 24 h allowing for attachment. Following incubation, the seeding media was removed, and the cells were washed with PBS. […] Post-exposure, RNA was isolated from the cells. Tri-reagent^Ⓡ (Sigma, Ireland) (Cat# T9424) was added to the cells followed by centrifugation at 300 g for 5 min. The RNA was precipitated using chloroform, followed by centrifugation and washing of the pellet using 75% ethanol. The RNA was resuspended in 30 μl of nuclease-free water. The RNA was either used immediately for qRT-PCR or stored at −80 ℃. The RNA from each sample was quantified using the NanoDrop™ 2000 Spectrophotometer (Thermo Fisher Scientific, Ireland). The A260/A230 ratio was measured to ensure the purity of each sample. Prior to cDNA synthesis, all samples were adjusted to a concentration of 100 ng. The RNA was then reverse transcribed into cDNA using the Quanta Biosciences Kit (Quanta Biosciences, USA) (Cat# 95047). Using the SimpliAmp Thermal Cycler (Applied Biosystems; Thermo Fisher Scientific, Ireland), the following settings were applied: 5 min at 22 ℃, 30 min at 42 ℃, 5 min at 85 ℃; samples were then maintained in an indefinite hold at 4 ℃ prior to being used for quantitative real-time PCR. The cDNA templates were amplified and analysed using SYBR™ Green (Fisher Scientific, UK) (Cat#10187094). Using the 7500 fast Real-Time PCR System (Applied Biosystems, USA), the following thermal cycling setting were applied for amplification: Pre-Incubation (1 cycle) 95 ℃, 5 Minutes, 4.4 ℃ ramp; Amplification (45 cycles) 95 °C 10 s ramp 4.4 °C, 60 °C 10 s ramp 2.2 °C, 72 °C 10 s ramp 4.4 °C; Melting Curve (1 cycle) 95 °C 5 s ramp 4.4 °C, 65 °C 1 min ramp 2.2 °C, 97 °C continuous ramp 0.11 °C acquisition 10 per °C; Cooling (1 cycle) 40 °C 10 s ramp 1.5 °C. Two reference genes, actin and tubulin, were employed to determine the expression of the target genes. No template controls were included to confirm the absence of template contamination and auto-fluorescence. Each PCR plate contained three technical replicates per sample and gene target, with each experiment repeated three independent times using three individual biological replicates.
(§3) qRT-PCR data was analysed by first using the Vandesompele method to calculate the geometric mean of Ct values for the reference genes, actin and tubulin. These values were used for normalisation of the target gene expression values which were then calculated using the Livak and Schmittgen formula: 2^−ΔCt1(test)−ΔCt2(control) (Livak and Schmittgen [2001]; Vandesompele et al. [2002]).
(§4) The expression profiles (Fig. 4) display the log(2) transformed mean expression value for each gene target relative to the negative control. Expression values for each target were determined relative to the geometric means of reference genes. […] Each graph contains a threshold line, set at the value of one, this represents baseline expression levels of genes.

[3] = test system: apoptotic genes in MCF-7 cells; experiment: Apoptosis-related gene expression, qRT-PCR; details: MCF-7, IC25 concentration, 24 h, relative to negative control
Procedure: as §1, §2, §3, §4

[4] = MCF-12A, 24-hour exposure, per one metal centre, mean ± S.D. (N=3)
[5] = MCF-12A, 24-hour exposure, per one metal centre, mean ± S.D. (N=3), read-out: IC50 calculated per one metal centre
[6] = MCF-12A, 24-h exposure, 25% reduction in metabolic activity, mean ± SD (N = 3)

Compound	Cytotoxic activity IC25 ± SD [1] [µM]	IC50 [1] [µM]	IC25 calculated per one metal centre [1, 4] [µM]	IC50 [1, 5] [µM]	Caspase gene expression (caspase-9, -8, -3) [2]	Pro-apoptotic gene expression (BID, BIM, BAD, BAX) [2]	Caspase gene expression (caspase-9, -8, -3) [3]	Pro-apoptotic gene expression (BID, BIM, BAD, BAX) [3]	Cytotoxic activity IC25 ± SD [1, 6] [µM]	IC50 ([1]; Homo sapiens, MCF-12A, 24 h, read-out: IC50 calculated per one metal centre) [µM]	Decrease in activity towards MCF-12A cells relative to MCF-7 cells (selectivity) ([1]; listed as 7)	Decrease in activity towards MCF-12A cells relative to MCF-7 cells (selectivity) ([1]; listed as complex 7)	IC50 ([1]; MCF-12A, 24-h exposure, 50% reduction in metabolic activity, mean ± SD (N = 3), read-out: Cytotoxic activity IC50 ± SD) [µM]
O=C([O-])CCCCCCC(=O)[O-].[Cu+2].[Cu+2].[O-][Cl+3]([O-])([O-])[O-].[O-][Cl+3]([O-])([O-])[O-].c1cnc2c(c1)ccc1cccnc12.c1cnc2c(c1)ccc1cccnc12.c1cnc2c(c1)ccc1cccnc12.c1cnc2c(c1)ccc1cccnc12 [Complex 1, [Cu2(oda)(phen)4](ClO4)2]	4.86 ± 1.91	6.14 ± 0.37	9.72 ± 3.82	12.3 ± 0.74	expressed caspase 8	upregulated expression of the gene encoding BH3-only protein BID	expressing initiator caspase 9	upregulated expression of the gene encoding BH3-only protein BID	–	–	–	–	–
O=C([O-])CCCCCCC(=O)[O-].[Cu+2].c1cnc2c(c1)ccc1cccnc12.c1cnc2c(c1)ccc1cccnc12 [Complex 2, [Cu(oda)(phen)2]]	–	–	0.68 ± 0.13	1.65 ± 0.13	expressed caspase 8	upregulated expression of the gene encoding BH3-only protein BID	expressing initiator caspase 9	upregulated expression of the gene encoding BH3-only protein BID	0.68 ± 0.13	–	–	–	–
O=C([O-])CCCCCCC(=O)[O-].[Ag+].[Ag+].c1cnc2c(c1)ccc1cccnc12.c1cnc2c(c1)ccc1cccnc12.c1cnc2c(c1)ccc1cccnc12 [Complex 4, [Ag2(oda)(phen)3]]	–	–	9.82 ± 0.28	–	expression of caspase-9 and caspase-3	significantly elevated BIM and BAD expression	expression of caspase-9 and caspase-3	–	4.91 ± 0.14	–	–	–	–
O=C([O-])CCCCCCCCCC(=O)[O-].[Ag+].[Ag+].c1cnc2c(c1)ccc1cccnc12.c1cnc2c(c1)ccc1cccnc12.c1cnc2c(c1)ccc1cccnc12 [Complex 5, [Ag2(udda)(phen)3]]	–	–	11.04 ± 1.0	–	expression of caspase-9 and caspase-3	significantly elevated BIM and BAD expression	expression of caspase-9 and caspase-3	–	5.52 ± 0.51	–	–	–	–
c1cnc2c(c1)ccc1cccnc12 [Phen, 1,10-Phenanthroline]	–	–	11.14 ± 4.39	–	all caspases seen to be activated	pro-apoptotic BIM and BAD were upregulated	all caspases seen to be activated	pro-apoptotic BIM and BAD were upregulated	11.14 ± 4.39	20.9 ± 1.96	–	–	–
{[Mn2(oda)3(phen)4]^2−[Mn2(oda)(phen)4 (H2O)2]^2+} [Complex 7]	–	–	1.52 ± 1.56	104 ± 30.8	Initiator caspase 9 was expressed by MCF-12A cells, but executioner caspase-3 was not found to be expressed	only shown to express BIM	No caspase activity was observed	expression of both BID and BIM	0.38 ± 0.39	–	almost tenfold reduction in cytotoxicity	almost tenfold decrease in activity	26.1 ± 7.7
